Measurements taken from patent publication US20230365592A1 (Agios Pharmaceuticals, Inc., priority 2022, published 2023).

Target: T1, human PAH with the R408W mutation (Homo sapiens, UniProt P00439, R408W)
T1 construct: expressed in transfected cells
T1 sequence (P00439 1-452 R408W): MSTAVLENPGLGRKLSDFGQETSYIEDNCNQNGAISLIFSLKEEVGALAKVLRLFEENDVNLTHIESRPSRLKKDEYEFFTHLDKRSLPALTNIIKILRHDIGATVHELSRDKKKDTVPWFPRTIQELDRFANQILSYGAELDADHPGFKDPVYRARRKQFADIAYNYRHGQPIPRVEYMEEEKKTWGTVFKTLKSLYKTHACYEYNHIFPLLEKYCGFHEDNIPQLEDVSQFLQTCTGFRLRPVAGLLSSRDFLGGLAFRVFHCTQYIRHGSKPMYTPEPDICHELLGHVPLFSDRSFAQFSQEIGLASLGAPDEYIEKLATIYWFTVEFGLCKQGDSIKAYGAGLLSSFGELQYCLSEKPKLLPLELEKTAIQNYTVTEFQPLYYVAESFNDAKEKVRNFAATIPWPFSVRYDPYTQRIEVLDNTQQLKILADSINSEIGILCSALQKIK
Assay: Cell Based Phenylalanine Flux Assay;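 further: after compound treatment, cells received sepiapterin plus isotope-labelled Phenylalanine for 4 hours, then labelled Tyrosine in the medium was quantified, 10-point 2-fold dilution series run in duplicate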
Settings: A375 cells expressing human PAH R408W; 24 hrs compound incubation; 13C-Tyrosine by LC-MS; average where tested multiple times; read-out: AC50

AC50 [nM] | Structure (SMILES)
< 500 | CC(C)(F)c1ncc(C(=O)N2CCc3[nH]cnc3[C@H]2c2cc3c(C(F)F)cccn3n2)o1 [Example 2106, (S)-(4-(4-(difluoromethyl)pyrazolo[1,5-a]pyridin-2-yl)-1,4,6,7-tetrahydro-5H-imidazo[4,5-c]pyridin-5-yl)(2-(2-fluoropropan-2-yl)oxazol-5-yl)methanone]
500 to 1000 | Cn1ccc(-c2ncc(C(=O)N3CCc4[nH]cnc4[C@H]3c3cc4c(C(F)(F)F)cccn4n3)o2)n1 [Example 2109, (S)-(2-(1-methyl-1H-pyrazol-3-yl)oxazol-5-yl)(4-(4-(trifluoromethyl)pyrazolo[1,5-a]pyridin-2-yl)-1,4,6,7-tetrahydro-5H-imidazo[4,5-c]pyridin-5-yl)methanone]
< 500 | Cc1c(-c2ncc(C(=O)N3CCc4[nH]cnc4[C@H]3c3cc4c(C(F)(F)F)cccn4n3)o2)cnn1C [Example 2110, (S)-(2-(1,5-dimethyl-1H-pyrazol-4-yl)oxazol-5-yl)(4-(4-(trifluoromethyl)pyrazolo[1,5-a]pyridin-2-yl)-1,4,6,7-tetrahydro-5H-imidazo[4,5-c]pyridin-5-yl)methanone]
500 to 1000 | O=C(c1ocnc1C1CC1)N1CCc2[nH]cnc2[C@H]1c1cc2cccc(C(F)F)n2n1 [Example 2112, (S)-(4-cyclopropyloxazol-5-yl)(4-(7-(difluoromethyl)pyrazolo[1,5-a]pyridin-2-yl)-1,4,6,7-tetrahydro-5H-imidazo[4,5-c]pyridin-5-yl)methanone]
> 5000 | O=C(c1ocnc1C1CC1)N1CCc2[nH]cnc2[C@@H]1c1cc2cccc(C(F)F)n2n1 [Example 2113, (R)-(4-cyclopropyloxazol-5-yl)(4-(7-(difluoromethyl)pyrazolo[1,5-a]pyridin-2-yl)-1,4,6,7-tetrahydro-5H-imidazo[4,5-c]pyridin-5-yl)methanone]
1000 to 5000 | Cn1cc(-c2nc(C3CC3)c(C(=O)N3CCc4[nH]cnc4[C@@H]3c3cc4c(C(F)F)cccn4n3)o2)cn1 [Example 2115, (R)-(4-cyclopropyl-2-(1-methyl-1H-pyrazol-4-yl)oxazol-5-yl)(4-(4-(difluoromethyl)pyrazolo[1,5-a]pyridin-2-yl)-1,4,6,7-tetrahydro-5H-imidazo[4,5-c]pyridin-5-yl)methanone]
< 500 | O=C(c1oc(-c2ccccn2)nc1C1CC1)N1CCc2[nH]cnc2[C@H]1c1cc2c(F)cccn2n1 [Example 2118, (S)-(4-cyclopropyl-2-(pyridin-2-yl)oxazol-5-yl)(4-(4-fluoropyrazolo[1,5-a]pyridin-2-yl)-1,4,6,7-tetrahydro-5H-imidazo(4,5-c]pyridin-5-yl)methanone]
1000 to 5000 | O=C(c1oc(-c2ccccn2)nc1C1CC1)N1CCc2[nH]cnc2[C@@H]1c1cc2c(F)cccn2n1 [Example 2119, (R)-(4-cyclopropyl-2-(pyridin-2-yl)oxazol-5-yl)(4-(4-fluoropyrazolo[1,5-a]pyridin-2-yl)-1,4,6,7-tetrahydro-5H-imidazo[4,5-c]pyridin-5-yl)methanone]
< 500 | Cc1cccn2nc([C@@H]3c4nc[nH]c4CCN3C(=O)c3oc(-c4ccccn4)nc3C3CC3)cc12 [Example 2120, (S)-(4-cyclopropyl-2-(pyridin-2-yl)oxazol-5-yl)(4-(4-methylpyrazolo[1,5-a]pyridin-2-yl)-1,4,6,7-tetrahydro-5H-imidazo[4,5-c]pyridin-5-yl)methanone]
< 500 | O=C(c1oc(-c2ccccn2)nc1C1CC1)N1CCc2[nH]cnc2[C@H]1c1cc2c(C(F)F)cccn2n1 [Example 2122, (S)-(4-cyclopropyl-2-(pyridin-2-yl)oxazol-5-yl)(4-(4-(difluoromethyl)pyrazolo[1,5-a]pyridin-2-yl)-1,4,6,7-tetrahydro-5H-imidazo[4,5-c]pyridin-5-yl)methanone]
1000 to 5000 | O=C(c1oc(-c2ccccn2)nc1C1CC1)N1CCc2[nH]cnc2[C@@H]1c1cc2c(C(F)F)cccn2n1 [Example 2123, (R)-(4-cyclopropyl-2-(pyridin-2-yl)oxazol-5-yl)(4-(4-(difluoromethyl)pyrazolo[1,5-a]pyridin-2-yl)-1,4,6,7-tetrahydro-5H-imidazo[4,5-c]pyridin-5-yl)methanone]
1000 to 5000 | O=C(c1oc(-c2ccccn2)nc1C1CC1)N1CCc2[nH]cnc2[C@@H]1c1cc2c(C(F)(F)F)cccn2n1 [Example 2125, (R)-(4-cyclopropyl-2-(pyridin-2-yl)oxazol-5-yl)(4-(4-(trifluoromethyl)pyrazolo[1,5-a]pyridin-2-yl)-1,4,6,7-tetrahydro-5H-imidazo[4,5-c]pyridin-5-yl)methanone]
> 5000 | Cc1cccn2nc([C@H]3c4nc[nH]c4CCN3c3ccccn3)cc12 [Example 2126, (R)-4-(4-methylpyrazolo[1,5-a]pyridin-2-yl)-5-(pyridin-2-yl)-4,5,6,7-tetrahydro-1H-imidazo[4,5-c]pyridine]
< 500 | Fc1ccc(-c2nnc(N3CCc4[nH]cnc4[C@H]3c3cc4cccc(C(F)(F)F)n4n3)o2)cc1 [Example 2129, (S)-2-(4-fluorophenyl)-5-(4-(7-(trifluoromethyl)pyrazolo[1,5-a]pyridin-2-yl)-1,4,6,7-tetrahydro-5H-imidazo[4,5-c]pyridin-5-yl)-1,3,4-oxadiazole]
> 5000 | Fc1ccc(-c2nnc(N3CCc4[nH]cnc4[C@@H]3c3cc4cccc(C(F)F)n4n3)o2)cc1 [Example 2130, (R)-2-(4-(7-(difluoromethyl)pyrazolo[1,5-a]pyridin-2-yl)-1,4,6,7-tetrahydro-5H-imidazo[4,5-c]pyridin-5-yl)-5-(4-fluorophenyl)-1,3,4-oxadiazole]
< 500 | Fc1ccc(-c2nnc(N3CCc4[nH]cnc4[C@H]3c3cc4cccc(C(F)F)n4n3)o2)cc1 [Example 2131, (S)-2-(4-(7-(difluoromethyl)pyrazolo[1,5-a]pyridin-2-yl)-1,4,6,7-tetrahydro-5H-imidazo[4,5-c]pyridin-5-yl)-5-(4-fluorophenyl)-1,3,4-oxadiazole]
1000 to 5000 | Fc1cccc(F)c1-c1nnc(N2CCc3[nH]cnc3[C@@H]2c2cc3cccc(C(F)(F)F)n3n2)o1 [Example 2132, (R)-2-(2,6-difluorophenyl)-5-(4-(7-(trifluoromethyl)pyrazolo[1,5-a]pyridin-2-yl)-1,4,6,7-tetrahydro-5H-imidazo[4,5-c]pyridin-5-yl)-1,3,4-oxadiazole]
< 500 | Fc1cccc(F)c1-c1nnc(N2CCc3[nH]cnc3[C@H]2c2cc3cccc(C(F)(F)F)n3n2)o1 [Example 2133, (S)-2-(2,6-difluorophenyl)-5-(4-(7-(trifluoromethyl)pyrazolo[1,5-a]pyridin-2-yl)-1,4,6,7-tetrahydro-5H-imidazo[4,5-c]pyridin-5-yl)-1,3,4-oxadiazole]
1000 to 5000 | Fc1cccc(N2CCc3[nH]cnc3[C@@H]2c2cc3ccccn3n2)n1 [Example 2134, (R)-5-(6-fluoropyridin-2-yl)-4-(pyrazolo[1,5-a]pyridin-2-yl)-4,5,6,7-tetrahydro-1H-imidazo[4,5-c]pyridine]
< 500 | Fc1cccc(N2CCc3[nH]cnc3[C@H]2c2cc3ccccn3n2)n1 [Example 2135, (S)-5-(6-fluoropyridin-2-yl)-4-(pyrazolo[1,5-a]pyridin-2-yl)-4,5,6,7-tetrahydro-1H-imidazo[4,5-c]pyridine]
> 5000 | FC(F)(F)c1ccc(N2CCc3[nH]cnc3[C@@H]2c2cc3cccc(Cl)n3n2)nc1 [Example 2137, (R)-4-(7-chloropyrazolo[1,5-a]pyridin-2-yl)-5-(5-(trifluoromethyl)pyridin-2-yl)-4,5,6,7-tetrahydro-1H-imidazo[4,5-c]pyridine]
< 500 | FC(F)c1cccc2cc([C@@H]3c4nc[nH]c4CCN3c3ccc(C(F)(F)F)cn3)nn12 [Example 2138, (S)-4-(7-(difluoromethyl)pyrazolo[1,5-a]pyridin-2-yl)-5-(5-(trifluoromethyl)pyridin-2-yl)-4,5,6,7-tetrahydro-1H-imidazo[4,5-c]pyridine]
< 500 | O=C(c1cnc(C2CC2)o1)N1CCc2[nH]cnc2[C@H]1c1cc2c(C(F)(F)F)cccn2n1 [Example 2140, (S)-(2-cyclopropyloxazol-5-yl)(4-(4-(trifluoromethyl)pyrazolo[1,5-a]pyridin-2-yl)-1,4,6,7-tetrahydro-5H-imidazo[4,5-c]pyridin-5-yl)methanone]
< 500 | CC(C)(C)c1ncc(C(=O)N2CCc3[nH]cnc3[C@H]2c2cc3c(C(F)(F)F)cccn3n2)o1 [Example 2142, (S)-(2-(tert-butyl)oxazol-5-yl)(4-(4-(trifluoromethyl)pyrazolo[1,5-a]pyridin-2-yl)-1,4,6,7-tetrahydro-5H-imidazo[4,5-c]pyridin-5-yl)methanone]
< 500 | CC(C)(F)c1ncc(C(=O)N2CCc3[nH]cnc3[C@H]2c2cc3c(C(F)(F)F)cccn3n2)o1 [Example 2144, (S)-(2-(2-fluoropropan-2-yl)oxazol-5-yl)(4-(4-(trifluoromethyl)pyrazolo[1,5-a]pyridin-2-yl)-1,4,6,7-tetrahydro-5H-imidazo[4,5-c]pyridin-5-yl)methanone]
> 5000 | CC(C)c1cccn2nc([C@H]3c4nc[nH]c4CCN3c3ccc(C(F)(F)F)cn3)cc12 [Example 2149, (R)-4-(4-isopropylpyrazolo[1,5-a]pyridin-2-yl)-5-(5-(trifluoromethyl)pyridin-2-yl)-4,5,6,7-tetrahydro-1H-imidazo[4,5-c]pyridine]
